According to the METLIN SMRT retention time set (Domingo-Almenara et al. 2019):

Assay: gradient 5% acetonitrile 3 min, to 50% in 2 min, to 85% in 15 min, held 3 min, 100 µL/min
Details: column: Zorbax Extend-C18 2.1 x 50 mm; eluents: water / acetonitrile, 0.1% formic acid
Summary of the method: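 Data were gathered over 3 months by HPLC coupled to a quadrupole time-of-flight mass spectrometer, operated in positive and negative ionization mode. Mixtures of ~100 pure standards ran on a Zorbax Extend-C18 column (2.1 × 50 mm, 1.8 μm) at 100 μL/min, with water and acetonitrile each containing 0.1% formic acid and dead and dwell volumes of 40 μL and 900 μL. Retention time was read from adduct peaks picked by computer and checked manually.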

Row | Structure (SMILES) | RP-LC retention time [s]
1 | CCOC(=O)C1=C(CN(CC)Cc2ccccc2)NC(=O)NC1c1ccc(F)cc1 (stereo not drawn) | 696
2 | NC(=O)C1CCN(C(=O)c2cc(-n3cnnn3)ccc2Cl)CC1 | 592
3 | CC1CC(=O)c2cnc(N3CCN(Cc4ccc5c(c4)OCO5)CC3)nc2C1 (stereo not drawn) | 632
4 | COc1cc(OC)c2c(=O)cc(-c3cccnc3)oc2c1 | 733
5 | CC1=C(c2ccc(F)cc2)S(=O)(=O)N=C1N1CCC(C(=O)NCCc2ccco2)CC1 | 802
6 | CC(C)NC(=O)c1nc(N2CCSCC2)c2cnn(C)c2n1 | 705
7 | O=C(Nc1ccc(Cl)cc1)Nc1cccn2ncnc12 | 838
8 | O=C(NCc1ccc(F)c(Cl)c1)C1CCCN(c2cnc3nccnc3c2)C1 (stereo not drawn) | 757
9 | CCCNC(=O)C1CCCN(c2ccc(SCC(=O)NCc3ccc(C)c(C)c3)nn2)C1 (stereo not drawn) | 698
10 | Cc1ccc(S(=O)(=O)N2CCCC2c2nc(-c3ccc(F)cc3)no2)cc1Cl (stereo not drawn) | 1230
11 | O=C(Nc1cccn2nc(C3CCC3)nc12)c1cccs1 | 861
12 | CN(C)CCCNC(=O)c1cn(C)nc1S(=O)(=O)N1CCN(c2ccc(Cl)cc2)CC1 | 684
13 | Cc1c(Cl)cccc1-c1ccc(CNCC2CCCO2)o1 (stereo not drawn) | 734
14 | COc1ccc(C(=O)N2CCN(c3ccc(-c4nc(C)cs4)cn3)CC2)cc1 | 805
15 | O=C1CCN(S(=O)(=O)c2ccccc2)CCCN(C(=O)Nc2ccc3c(c2)OCCO3)CCN1 | 701
16 | CCCn1nnc(NCc2ccc(-c3cccc(Cl)c3)o2)n1 | 1090
17 | COc1ccc(NC(=O)C2CCN(S(=O)(=O)c3ccc4c(c3)NC(=O)CO4)CC2)cc1Cl | 777
18 | CC(=O)[C@@]1(O)[C@H](C)C[C@H]2[C@@H]3C=C(C)C4=Cc5c(cnn5-c5ccccc5)C[C@]4(C)[C@H]3[C@@H](O)C[C@@]21C | 1200
19 | Cc1noc(C2CN(C(=O)Nc3ccccc3C)CC23CCOCC3)n1 (stereo not drawn) | 700
20 | O=C(NC1CCN(c2cc(-c3ccc(F)cc3)[nH]n2)C1)c1ccccc1Cl (stereo not drawn) | 721
21 | O=C(COc1ccccc1F)NCC1CN(c2ccc3c(c2)OCO3)C(=O)O1 (stereo not drawn) | 721
22 | O=C(Nc1ccccc1F)c1c(O)c2cccnc2n(-c2cccc(F)c2)c1=O | 1250

Row | Structure (SMILES) | RP-LC retention time [s]
23 | CCCn1c(C(=O)NN2CCCC2=O)cc2c(=O)n(C)c(=O)n(C)c21 | 592
24 | COc1ccc(-c2cn3c(CC(=O)NCc4cccs4)csc3n2)cc1OC | 678
25 | Cc1c(C(=O)C(=O)Nc2ccc(C(N)=O)cc2)c2ccccc2n1C | 686
26 | CN(C)C(=O)COc1cc(O)c2c(=O)cc(-c3ccccc3)oc2c1 | 832
27 | O=C(C1COc2ccccc2O1)N1CCOc2ccc(N3CCCC3)cc2C1 (stereo not drawn) | 794
28 | COCCNC(=O)CN1c2ccccc2NC2=C(C(=O)CC(C)(C)C2)C1c1ccccc1OC (stereo not drawn) | 756
29 | O=C(CN1CCN(c2ccc3c(c2)OCCO3)C1=O)NCc1nc(-c2ccccc2)no1 | 745
30 | O=C(Nc1nc(-c2ccc(-c3ccccc3)cc2)cs1)C1CCCC1 | 1260
31 | CCc1ccc(S(=O)(=O)c2cnc(N3CCN(C4CCCCC4)CC3)nc2N)cc1 | 706
32 | CCCn1cc(C2=CCN(C(=O)Nc3ccc(OC)cc3)CC2)c2cccnc21 | 858
33 | Cc1nn(-c2ccccc2)c(C)c1S(=O)(=O)N1CCC(C(=O)N2CCc3ccccc3C2)CC1 | 986
34 | COc1ccccc1CN1CCN(C(=O)C2CCc3nc(N4CCCCC4)ncc3C2)CC1 (stereo not drawn) | 623
35 | O=C(Nc1ccc2c(c1)CCC2)C1CCN(C(=O)c2ncn3c2COC(c2ccc(F)cc2)C3)CC1 (stereo not drawn) | 872
36 | Cc1cc(=O)n(CC(=O)NCc2ccc3c(c2)OCO3)c(-c2ccc(F)cc2)n1 | 940
37 | CCn1c(CCc2ccccc2NS(=O)(=O)c2ccc3c(c2)OCCO3)nc2ccccc21 | 717
38 | CC1CN(C(=O)CSc2cn(CC(=O)N3CCCCCC3)c3ccccc23)CC(C)O1 (stereo not drawn) | 897
39 | Cc1ccc(CC(=O)N2CCC(COc3ccc(C(=O)NC4CC4)cc3)CC2)cc1 | 856
40 | CCn1c(=O)oc2cc(S(=O)(=O)N3CCN(C(=O)C4(c5ccccc5)CC4)CC3)ccc21 | 848
41 | Cc1nc(N2CCCC2)c2c(C(=O)NCCc3ccc(Cl)cc3)c(C)oc2n1 | 782
42 | O=C(c1ccc(S(=O)(=O)c2ccccc2)s1)N1CCN(c2ccccn2)CC1 | 652
43 | CN1CCN(c2cc(-c3nc(-c4ccc(Cl)cc4)no3)c3ccccc3n2)CC1 | 881
44 | COCCCNC(=O)c1csc(N2CCN(c3ccc(F)cc3)CC2)n1 | 915

Row | Structure (SMILES) | RP-LC retention time [s]
45 | CCc1cc2c3c([nH]c2cc1S(=O)(=O)N1CCN(c2ccccn2)CC1)CC(C)(C)CC3=O | 695
46 | O=C(Nc1ccc(F)cc1F)C1CCCN(S(=O)(=O)Cc2ccc(F)cc2)C1 (stereo not drawn) | 976
47 | Cc1cc(CN2CCC(CNC(=O)C(=O)NCCC3=CCCCC3)CC2)c(C)o1 | 607
48 | Cc1cc(C)n(-c2cc(SCC(=O)NCc3ccco3)ncn2)n1 | 779
49 | CCN(CC)CCc1nc(-c2ccccc2)no1 | 674
50 | Cc1ccc(CNC(=O)N2CCN(c3cnn4c(C)nnc4c3)CC2)cc1 | 568
51 | O=C(Nc1cc(Cl)ccc1F)c1cnc(-c2ccccc2)nc1-c1ccncc1 | 976
52 | CC1Oc2ccc(-c3csc(NC(=O)CCc4ccccc4)n3)cc2NC1=O (stereo not drawn) | 1050
53 | COCCNC(=O)N1CCN(c2ncccc2-c2nnc(C(C)C)o2)CC1 | 627
54 | Cn1c(=O)n(C)c2cc(Sc3ccccc3)c(NC(=O)C3CC3)cc21 | 849
55 | CCOc1ccc(-c2nc(CN(c3ccccc3)S(=O)(=O)c3cccs3)c(C)o2)cc1OC | 1120
56 | CCn1cc(S(=O)(=O)N2CCCC2c2nncn2Cc2ccncc2)cn1 (stereo not drawn) | 553
57 | COc1ccc(N2CCN(c3cc(SCC(=O)Nc4ccc(OC)c(OC)c4)ncn3)CC2)cc1 | 791
58 | COc1ccc(NC(=O)c2nc(N3CCCC3)c3c(C)cc(C)nc3n2)cc1 | 656
59 | C#CCn1cnc2c(oc3ccccc32)c1=O | 673
60 | Cc1ccc(C)c(NC(=O)C(=O)NCC(c2ccc3c(c2)CCCN3C)N2CCOCC2)c1 (stereo not drawn) | 601
61 | Cc1ccc(-c2ccc(-n3nc(C)c(S(=O)(=O)Nc4ccc(F)cc4)c3C)nn2)cc1 | 1070
62 | Cn1c(=O)n([C@@H]2CCN(C(=O)CCc3nc4ccccc4s3)C2)c2ncccc21 | 733
63 | COc1ccccc1N1CCN(Cc2nc(-c3ccc(N4CCCCC4)nc3)no2)CC1 | 757
64 | CCOC(=O)c1ccc(NC(=O)c2ccc(=O)n(C)n2)cc1 | 693
65 | COc1ccc2c(c1)c1ccc3c(c1n2C)C(=O)C=CC3=O | 1120
66 | O=S(=O)(c1ccc2c(c1)-c1oncc1CO2)N1CCN(Cc2ccc3c(c2)OCO3)CC1 | 666

Row | Structure (SMILES) | RP-LC retention time [s]
67 | Cn1c(N2CCCC(C(=O)NCc3ccccc3)C2)cc(=O)n(C)c1=O (stereo not drawn) | 662
68 | O=C1CCc2cc(NS(=O)(=O)Cc3ccccc3Cl)ccc2N1 | 783
69 | Cc1cc(=O)n2nc(-c3ccc(Cl)cc3)nc2n1CC(=O)NC(C)C | 744
70 | O=C(Nc1cc(F)ccc1F)N1CCC(N2CCN(Cc3ccc(F)cc3)C2=O)CC1 | 850
71 | CNc1cccnc1OC1CCN(Cc2ccccn2)C1 (stereo not drawn) | 577
72 | COc1ccccc1CNC(=O)CN1C(=O)CSc2cccn2-c2ccccc21 | 613
73 | Cc1cc(=O)n(CC(=O)Nc2ccc3c(c2)OCO3)c(N2CCCCC2)n1 | 666
74 | Cc1cccc(OCCc2noc(C3CNC3)n2)c1 | 644
75 | COCCOC(=O)C1=C(C)NC2=C(C(=O)C(C(=O)OC)C(C)C2)C1c1cccc(F)c1 (stereo not drawn) | 832
76 | Cc1ccc(-c2cn3c(n2)N(C(=O)c2cnccn2)CCC3)cc1 | 642
77 | CCCN(CC1CCOC1)C(=O)Nc1ccc(C)c(C)c1 (stereo not drawn) | 869
78 | CCOC(=O)C1CCN(Cc2nc3nc(C)cc(N4CCC(C)CC4)n3n2)CC1 | 642
79 | CC(C)(Cc1c[nH]c2ccc(Cl)cc12)NCCOc1ccccc1OCC1CC1 | 953
80 | O=C(Nc1ccccc1)c1ccc(=O)n(CCN2CCOCC2)c1 | 590
81 | CC(C)N1C(=O)c2cccnc2Sc2cc(NC(=O)c3ccco3)ccc21 | 776
82 | CCn1cc(CCN2CCN(S(=O)(=O)c3cccc(C#N)c3)CC2)c2cccnc21 | 635
83 | CC1=NS(=O)(=O)N(Cc2ccccc2)C=C1C(=O)OCc1noc(C2CCCCC2)n1 | 1110
84 | Cc1ccc(S(=O)(=O)N2CCCN(c3ccc(=O)n(-c4ccc(F)cc4)n3)CC2)c(C)c1 | 961
85 | O=C(NCCCc1ccccc1)C1CCN(c2cnn(Cc3ccccc3)c(=O)c2)CC1 | 818
86 | CCn1cc(C)c(C(=O)O)c1CC(=O)N1CCCc2ccccc21 | 811
87 | CCn1cc(-c2nc(CC(=O)Nc3ccc(C)cc3F)cs2)c2cccnc21 | 865
88 | CCOc1ccc(NC(=O)C2CCCN(c3cnc4nccnc4c3)C2)cc1 (stereo not drawn) | 689
